From patent publication US20020082452A1, “alpha-sulfin-and alpha-sulfonamino acid amides” (priority 1998, published 2002)

Key:
Assay type in all cases: in vivo
Plasmopara viticola = assay: D-1: Action against Plasmopara viticola on vines (residual-protective and residual-curative action); details: vine seedlings, spray mixture 0.02% active ingredient, evaluated after 6 days at 95-100% relative humidity and 20° C.
Experimental: D-1: Action against Plasmopara viticola on Vines a) Residual-Protective Action
Vine seedlings are sprayed at the 4- to 5-leaf stage with a spray mixture (0.02% active ingredient) prepared from a wettable powder formulation of the test compound. After 24 hours, the treated plants are infected with a sporangia suspension of the fungus. Fungus infestation is evaluated after incubation for 6 days at 95-100% relative humidity and 20° C. […]
b) Residual-Curative Action
Vine seedlings are infected at the 4- to 5-leaf stage with a sporangia suspension of the fungus. After incubation for 24 hours in a humidity chamber at 95-100% relative humidity and 20° C., the infected plants are dried and sprayed with a spray mixture (0.02% active ingredient) prepared from a wettable powder formulation of the test compound. After the spray coating has dried, the treated plants are placed in the humidity chamber again. Fungus infestation is evaluated 6 days after infection. […] Compounds A1.02, A1.03, A1.04, A1.03, A1.5, A1.06, A1.07, A1.09, A1.10, A1.13, A1.14, A1.15, A1.16, A1.21, A1.23.

Phytophthora [1] = assay: D-2: Action against Phytophthora on tomato plants (residual-protective and systemic action); details: spray mixture 0.02% active ingredient (sprayed or watered), evaluated after 4-5 days at 90-100% relative humidity and 20° C.
Experimental: D-2: Action Against Phytophthora on Tomato Plants
(§1) a) Residual-Protective Action
After a cultivation period of 3 weeks, tomato plants are sprayed with a spray mixture (0.02% active ingredient) prepared from a wettable powder formulation of the test compound. After 48 hours, the treated plants are infected with a sporangia suspension of the fungus. Fungus infestation is evaluated after incubation of the infected plants for 5 days at 90-100% relative humidity and 20° C.
After a cultivation period of 3 weeks, tomato plants are watered with a spray mixture (0.02% active ingredient based on the volume of the soil) prepared from a wettable powder formulation of the test compound. […] After 96 hours, the treated plants are infected with a sporangia suspension of the fungus. Fungus infestation is evaluated after incubation of the infected plants for 4 days at 90-100% relative humidity and 20° C. […] Compounds A1.02, A1.03, A1.04, A1.03, A1.05, A1.06, A1.07, A1.09, A1.10, A1.13, A1.14, A1.15, A1.16, A1.21, A1.23.

Phytophthora [2] = assay: D-3: Action against Phytophthora on potato plants (residual-protective and systemic action); details: potato plants (Bintje variety), spray mixture 0.02% active ingredient (sprayed or watered), evaluated after 4 days at 90-100% relative humidity and 20° C.
Experimental: D-3 Action Against Phytophthora on Potato Plants
as §1
2-3 week old potato plants (Bintje variety) are sprayed with a spray mixture (0.02% active ingredient) prepared from a wettable powder formulation of the test compound. After 48 hours, the treated plants are infected with a sporangia suspension of the fungus. Fungus infestation is evaluated after incubation of the infected plants for 4 days at 90-100% relative humidity and 20° C.
2-3 week old potato plants (Bintje variety) are watered with a spray mixture (0.02% active ingredient based on the volume of the soil) prepared from a wettable powder formulation of the test compound. […] After 48 hours, the treated plants are infected with a sporangia suspension of the fungus. Fungus infestation is evaluated after incubation of the infected plants for 4 days at 90-100% relative humidity and 20° C. Fungal infestation is effectively controlled with compounds of Tables 1 to 37. Compounds A1.02, A1.03, A1.04, A1.03, A1.05, A1.06, A1.07, A1.09, A1.10, A1.13, A1.14, A1.15, A1.16, A1.21, A1.23.

Measured: Fungus infestation

COc1cc(CCNC(=O)C(NS(C)(=O)=O)C(C)C)ccc1OC(C)COc1ccc(Cl)cc1 (mixture of isomers) [Compound A1.80]
completely inhibit fungal infestation: all assays above

C#CCC(NS(=O)(=O)CC)C(=O)NCCc1ccc(OCC=Cc2ccc(Cl)cc2)c(OC)c1 (racemic) [Compound A1.108]
completely inhibit fungal infestation: all assays above

COc1cc(CCNC(=O)[C@@H](NS(C)(=O)=O)C(C)C)ccc1OCCOc1ccc(F)cc1 [Compound A1.02]
completely inhibit fungal infestation: all assays above

COc1cc(CCNC(=O)[C@@H](NS(=O)(=O)N(C)C)C(C)C)ccc1OCCOc1ccc(F)cc1 [Compound A1.03]
completely inhibit fungal infestation: all assays above

CCC[C@H](NS(=O)(=O)CC)C(=O)NCCc1ccc(OCCOc2ccc(F)cc2)c(OC)c1 [Compound A1.04]
completely inhibit fungal infestation: all assays above

CC[C@H](NS(=O)(=O)CC)C(=O)NCCc1ccc(OCCOc2ccc(F)cc2)c(OC)c1 [Compound A1.05]
completely inhibit fungal infestation: all assays above

CCS(=O)(=O)N[C@H](C(=O)NCCc1ccc(OCCOc2ccccc2)c(OC)c1)C(C)C [Compound A1.06]
completely inhibit fungal infestation: all assays above

COc1cc(CCNC(=O)[C@@H](NS(C)(=O)=O)C(C)C)ccc1OCCOc1ccccc1 [Compound A1.07]
completely inhibit fungal infestation: all assays above

CCC[C@H](NS(=O)(=O)CC)C(=O)NCCc1ccc(OCCOc2ccccc2)c(OC)c1 [Compound A1.09]
completely inhibit fungal infestation: all assays above

CC[C@H](NS(=O)(=O)CC)C(=O)NCCc1ccc(OCCOc2ccccc2)c(OC)c1 [Compound A1.10]
completely inhibit fungal infestation: all assays above

CCS(=O)(=O)N[C@H](C(=O)NCCc1ccc(OCCOc2ccc(Cl)cc2)c(OC)c1)C(C)C [Compound A1.13]
completely inhibit fungal infestation: all assays above

COc1cc(CCNC(=O)[C@@H](NS(C)(=O)=O)C(C)C)ccc1OCCOc1ccc(Cl)cc1 [Compound A1.14]
completely inhibit fungal infestation: all assays above

CC[C@H](NS(=O)(=O)CC)C(=O)NCCc1ccc(OCCOc2ccc(Cl)cc2)c(OC)c1 [Compound A1.15]
completely inhibit fungal infestation: all assays above

CCC[C@H](NS(=O)(=O)CC)C(=O)NCCc1ccc(OCCOc2ccc(Cl)cc2)c(OC)c1 [Compound A1.16]
completely inhibit fungal infestation: all assays above

CCS(=O)(=O)N[C@H](C(=O)NCCc1ccc(OCCOc2ccccc2Cl)c(OC)c1)C(C)C [Compound A1.21]
completely inhibit fungal infestation: all assays above

CCS(=O)(=O)N[C@H](C(=O)NCCc1ccc(OCCOc2cccc(F)c2)c(OC)c1)C(C)C [Compound A1.23]
completely inhibit fungal infestation: all assays above

CCS(=O)(=O)N[C@H](C(=O)NCCc1ccc(OCCOc2ccc(C)cc2)c(OC)c1)C(C)C [Compound A1.24]
completely inhibit fungal infestation: all assays above

CCS(=O)(=O)N[C@H](C(=O)NCCc1ccc(OCCOc2cccc(C)c2)c(OC)c1)C(C)C [Compound A1.25]
completely inhibit fungal infestation: all assays above

COc1cc(CCNC(=O)[C@@H](NS(C)(=O)=O)C(C)C)ccc1OCCOc1ccc(Cl)c(Cl)c1 [Compound A1.75]
completely inhibit fungal infestation: all assays above

COc1cc(CCNC(=O)[C@@H](NS(C)(=O)=O)C(C)C)ccc1OCCOc1cccc(F)c1 [Compound A1.76]
completely inhibit fungal infestation: all assays above

COc1cc(CCNC(=O)[C@@H](NS(C)(=O)=O)C(C)C)ccc1OCCSc1ccc(Cl)cc1 [Compound A1.78]
completely inhibit fungal infestation: all assays above

CCS(=O)(=O)N[C@H](C(=O)NCCc1ccc(OCC=Cc2ccc(Cl)cc2)c(OC)c1)C1CCC1 [Compound A1.107]
completely inhibit fungal infestation: all assays above

CCS(=O)(=O)N[C@H](C(=O)NCCc1ccc(OC/C=C/c2ccc(Cl)cc2)c(OC)c1)C(C)C [Compound A2.03]
completely inhibit fungal infestation: all assays above
